Test results published in patent publication US20170224692A1, “Combination Therapy” (Novartis AG, priority 2014, published 2017).
Several values for one entry are separate records, joined by “and”; a condition that tells them apart may be missing. Equal entries are not always repeated.

Legend:
Format in all cases: cell-based
[1] = test system: YD-38 cells; test: 3 day CellTiter-Glo cell proliferation assay / dose matrix combination, YD-38
Description: (§1) YD-38, CAL-33 and CCK-81 cells were cultured at 37° C. in a 5% CO2 incubator using the ATCC media (YD-38, RPMI-1640; CAL-33, DMEM; CCK-81, EMEM) supplemented with 10% FBS (Thermo scientific, SH30071.03). […] L-glutamine (Invitrogen, #25030-081) was also supplemented for CAL-33 media. Cells were passaged twice a week using TryPLE Express (Invitrogen, #12604-013).
(§2) Cell viability was determined by measuring cellular ATP content using the CellTiter-Glo®(CTG) luminescent cell viability assay (Promega #G7573) according to the manufacturer's protocol. Briefly, various number of cells (6000 for CAL-33, 4200 for YD-38 and 7000 for CCK-81) were seeded in 80 μl growth media per well in clear-bottom 96-well black plates (Costar, #3904) in triplicates. Cells were allowed to attach overnight prior to 72 hours of treatment with indicated compounds (serially-diluted where applicable) and/or 75 ng/ml HGF in a volume of 100 ul for HGF rescue experiment (+20 μl compound or HGF) or 140 ul for Chalice combination experiment (+20 μl compound A+20 μl compound B+20 ul media or HGF). At the end of the drug treatment, 100 ul CTG reagent was added to each well to lyse the cells, and luminescence signals were recorded in the Envision plate reader (Perkin Elmer).
(§3) In all combination assays, compounds were applied simultaneously. […] INC280 was subjected to a 7 doses 3× serial dilution with the highest dose at 1.5 μM and the lowest dose at about […]. The synergistic interaction was analyzed using Chalice software (CombinatoRx, Cambridge Mass.). Synergy was calculated by comparing a combination's response to those of its single agents, against the drug-with-itself dose-additive reference model and reported as Synergy Score (Lehar et al., 2009).
(§4) YD-38, CAL-33 and CCK-81 cells were treated in 96-well format for 3 days with HGF alone, Panitumumab alone, Panitumumab as a singal agent and Panitumumab with INC280 in the present or absent of HGF. (FIGS. 6 and 7). Cell viability was measured using the CellTiter-Glo assay. % viability was plotted as bar graphs with mean values and standard deviations from triplicates. […] Each data point represents averaged data from 3 wells +standard deviation, and the color spectrum also represents the level of the inhibition.

[2] = test system: CAL-33 cells; test: 3 day CellTiter-Glo cell proliferation assay / dose matrix combination, CAL-33
Description: as §1, §2, §3, §4

[3] = test system: CCK-81 cells; test: 3 day CellTiter-Glo cell proliferation assay / dose matrix combination, CCK-81
Description: as §1, §2, §3, §4

[4] = test system: YD-38, CAL-33 and CCK-81 cells; test: 3 day CellTiter-Glo proliferation / dose matrix combination, statements over all three cell lines
Description: Cell viability was determined by measuring cellular ATP content using the CellTiter-Glo®(CTG) luminescent cell viability assay (Promega #G7573) according to the manufacturer's protocol. Briefly, various number of cells (6000 for CAL-33, 4200 for YD-38 and 7000 for CCK-81) were seeded in 80 μl growth media per well in clear-bottom 96-well black plates (Costar, #3904) in triplicates. […] At the end of the drug treatment, 100 ul CTG reagent was added to each well to lyse the cells, and luminescence signals were recorded in the Envision plate reader (Perkin Elmer).
In all combination assays, compounds were applied simultaneously. […] The synergistic interaction was analyzed using Chalice software (CombinatoRx, Cambridge Mass.). Synergy was calculated by comparing a combination's response to those of its single agents, against the drug-with-itself dose-additive reference model and reported as Synergy Score (Lehar et al., 2009).
YD-38, CAL-33 and CCK-81 cells were treated in 96-well format for 3 days with HGF alone, Panitumumab alone, Panitumumab as a singal agent and Panitumumab with INC280 in the present or absent of HGF. […] Cell viability was measured using the CellTiter-Glo assay. % viability was plotted as bar graphs with mean values and standard deviations from triplicates. […]

[5] = INC280 single agent, dose matrix
[6] = co-treatment with 500 nM INC280, 100 nM Cetuximab, 75 ng/ml HGF
[7] = addition of 75 ng/ml HGF together with antibody

CNC(=O)c1ccc(-c2cnc3ncc(Cc4ccc5ncccc5c4)n3n2)cc1F [INC280, 2-fluoro-N-methyl-4-[(7-quinolin-6-yl-methyl)-imidazo[1,2-b]triazin-2-yl]benzamide]
anti-proliferation effect, single agent [1, 5]: no anti-proliferation effect | block of the HGF rescue of Cetuximab effect [1, 6]: completely blocked | INC280 concentration that re-sensitized HGF-treated cells to Cetuximab ([1]; presence of HGF, dose matrix): 18 nM | anti-proliferation effect, single agent [2, 5]: no anti-proliferation effect | block of the HGF rescue of Cetuximab effect [2, 6]: completely blocked | INC280 concentration that re-sensitized HGF-treated cells to Cetuximab ([2]; presence of HGF, dose matrix): 18 nM | inhibition at 1.5 µM ([3]; INC280 at 1.5 μM, presence of HGF, read-out: growth inhibition, single agent): ~20% | block of the HGF rescue of Cetuximab effect [3, 6]: fully blocked | INC280 concentration that re-sensitized HGF-treated cells to Cetuximab ([3]; presence of HGF, dose matrix): 18 nM | anti-proliferation effect, single agent ([4]; INC280 single agent, regardless of HGF addition): little or no anti-proliferation effect | INC280 concentration that re-sensitized cells to Cetuximab ([4]; presence of HGF): 18 nM

HGF: Recombinant HGF (R&D Systems, 294-HG-005/CF), ligand activating MET [reference compound]
growth-stimulating effect of HGF alone ([1]; 75 ng/ml HGF alone): no growth-stimulating effect | growth-promoting effect by HGF alone ([2]; 75 ng/ml HGF alone): ~16% | growth-stimulating effect of HGF alone ([3]; 75 ng/ml HGF alone): ~19% and ~20%

Panitumumab: fully human monoclonal antibody specific to the epidermal growth factor receptor [reference compound]
HGF rescue of the anti-proliferation effect of the EGFR antibody [1, 7]: rescued | HGF rescue of the anti-proliferation effect of the EGFR antibody [2, 7]: rescued | HGF rescue of the anti-proliferation effect of the EGFR antibody [3, 7]: rescued
